Assay results reported in patent publication US10954287B2, “Ras binding peptides and methods of use” (Ra Pharmaceuticals, Inc., priority 2016, dated 2021).

Test system: GMPPNP-loaded H-Ras or GTP-loaded K-Ras
Experiment: Fluorescence polarization competition assay with TAMRA-labeled probe R4007
Type: binding, human
Conditions: 120 nM Ras, 30 nM probe R4007, 60 minutes at room temperature; read-out: Probe displacement (nM IC50)
Description: R4000 was evaluated for competition with a TAMRA labeled probe (R4007) based on peptide R4000. The assay was performed in 384-well black, non-binding plates (Greiner Bio-One, Monroe, N.C.). GMPPNP-loaded H-Ras or GTP-loaded K-Ras, diluted in FP assay buffer (20 mM Tris-HCl, pH 7.5, 50 mM NaCl, 5 mM MgCl2, 1 mM EDTA, 0.002% Triton-X-100) for a final concentration of 120 nM was incubated with 30 nM R4007 for 20 minutes at room temperature. R4000 was serially diluted, added to the assay and incubated for 60 minutes at room temperature. Fluorescence polarization was detected with a SpectraMax Paradigm plate reader (Molecular Devices, Sunnyvale, Calif.) using the Rhodamine FP detection cartridge (535 nm/595 nm). Data was analyzed using GraphPad Prism and Ki determined using One Site Ki Curve fitting model.
Peptides were evaluated for competition with R4007, a probe consisting of TAMRA-labeled R4000, using a fluorescence polarization (FP) competition assay. The assay was performed in 384-well black, non-binding plates (Greiner Bio-One, Monroe, N.C.). GMPPNP-loaded H-Ras or GTP- loaded K-Ras, diluted in FP assay buffer (20 mM Tris-HCl, pH 7.5, 50 mM NaCl, 5 mM MgCl2, 1 mM EDTA, 0.002% Triton-X-100) for a final concentration of 120 nM was incubated with 30 nM probe for 20 minutes at room temperature. Peptides were serially diluted, added to the assay and incubated for 60 minutes at room temperature. Fluorescence was detected with a SpectraMax Paradigm plate reader (Molecular Devices, Sunnyvale, Calif.) using the Rhodamine FP detection cartridge (535 nm/595 nm). Data was analyzed and Ki determined using a One Site Ki Curve fitting model. Percent inhibition for each data point was calculated relative to the maximal binding in test compound-free control wells (showing no probe displacement) and Ras-free control wells (showing no probe binding) and the half-maximal inhibitory concentration (IC50), based on probe displacement, was determined.

Compound: CCC[C@H](N)C(=O)N[C@H]1CSCc2cccc(c2)CSC[C@@H](C(N)=O)NC(=O)CN(C)C(=O)[C@H](Cc2ccc(F)cc2)N(C)C(=O)[C@H](Cc2ccc(O)cc2)NC(=O)[C@H](Cc2c[nH]c3ncccc23)NC(=O)[C@H](c2ccccc2)NC(=O)[C@H](C)N(C)C(=O)[C@H](Cc2cnc[nH]2)NC(=O)[C@H](CCCCN)NC(=O)[C@H](C(C)(C)C)NC(=O)[C@H](Cc2ccc(O)cc2)NC1=O (relative stereo) [Compound R4002, NVA-CYS*-TYR-TBG-LYS-HIS-NMA-PHG-7AW-TYR-MFF-SAR-CYS*-NH2]
- IC50: 7.92 nM

Compound: CCC[C@H](NC(C)=O)C(=O)N[C@H]1CSCc2cccc(c2)CSC[C@@H](C(N)=O)NC(=O)[C@H](Cc2c[nH]cn2)NC(=O)[C@H](CCC)NC(=O)[C@H](Cc2c[nH]c3ncccc23)NC(=O)[C@H](CCC(=O)O)NC(=O)[C@H](Cc2c[nH]c3ncccc23)NC(=O)[C@H](Cc2c[nH]c3ncccc23)NC(=O)[C@H]([C@@H](C)O)NC(=O)[C@H](Cc2c[nH]cn2)NC(=O)[C@H](Cc2ccc(O)cc2)NC(=O)[C@H](C(C)(C)C)NC1=O (relative stereo) [Compound R4100, ACE-NVA-CYS*-TBG-TYR-HIS-THR-7AW-7AW-GLU-7AW-NVA-HIS-CYS*-NH2]
- IC50: 1.06 nM

Compound: CCC[C@H](NC(C)=O)C(=O)N[C@H]1CSCc2cccc(c2)CSC[C@@H](C(N)=O)NC(=O)[C@H](C)N(C)C(=O)[C@H](Cc2ccc(F)cc2)N(C)C(=O)[C@H](Cc2ccc(O)cc2)NC(=O)[C@H](Cc2c[nH]c3ncccc23)NC(=O)[C@H](c2ccccc2)NC(=O)[C@H](C)N(C)C(=O)[C@H](Cc2c[nH]cn2)NC(=O)[C@H](CCCCN)NC(=O)[C@H](C(C)(C)C)NC(=O)[C@H](Cc2ccc(O)cc2)NC1=O (relative stereo) [Compound R4101, ACE-NVA-CYS*-TYR-TBG-LYS-HIS-NMA-PHG-7AW-TYR-MFF-NMA-CYS*-NH2]
- IC50: 1.45 nM

Compound: CCC[C@H](NC(C)=O)C(=O)N[C@H]1CSCc2cccc(c2)CSC[C@@H](C(=O)N[C@H](CO)C(=O)N[C@H](C)C(=O)NCC(=O)N[C@@H](CS)C(=O)N[C@H](C(=O)N[C@H](C(=O)N[C@@H](CCSC)C(=O)O)[C@@H](C)CC)C(C)C)NC(=O)CN(C)C(=O)[C@H](Cc2ccc(F)cc2)N(C)C(=O)[C@H](Cc2ccc(O)cc2)NC(=O)[C@H](Cc2c[nH]c3ncccc23)NC(=O)[C@H](c2ccccc2)NC(=O)[C@H](C)N(C)C(=O)[C@H](Cc2c[nH]cn2)NC(=O)[C@H](CCCCN)NC(=O)[C@H](C(C)(C)C)NC(=O)[C@H](Cc2ccc(O)cc2)NC1=O (relative stereo) [Compound R4102, ACE-NVA-CYS*-TYR-TBG-LYS-HIS-NMA-PHG-7AW-TYR-MFF-SAR-CYS*-DSER-DALA-GLY-CYS-VAL-ILE-MET]
- IC50: 1.82 nM

Compound: CCC[C@H](NC(=O)CCCC(=O)O)C(=O)N[C@H]1CSCc2cccc(c2)CSC[C@@H](C(N)=O)NC(=O)CN(C)C(=O)[C@H](Cc2ccc(F)cc2)N(C)C(=O)[C@H](Cc2ccc(O)cc2)NC(=O)[C@H](Cc2c[nH]c3ncccc23)NC(=O)[C@H](c2ccccc2)NC(=O)[C@H](C)N(C)C(=O)[C@H](Cc2c[nH]cn2)NC(=O)[C@H](CCCCN)NC(=O)[C@H](C(C)(C)C)NC(=O)[C@H](Cc2ccc(O)cc2)NC1=O (relative stereo) [Compound R4103, GLA-NVA-CYS*-TYR-TBG-LYS-HIS-NMA-PHG-7AW-TYR-MFF-SAR-CYS*-NH2]
- IC50: 2 nM

Compound: CC(=O)N[C@@H](CO)C(=O)N[C@H]1CSCc2cccc(c2)CSC[C@@H](C(N)=O)NC(=O)CN(C)C(=O)[C@H](Cc2ccc(F)cc2)N(C)C(=O)[C@H](Cc2ccc(O)cc2)NC(=O)[C@H](Cc2c[nH]c3ncccc23)NC(=O)[C@H](c2ccccc2)NC(=O)[C@H](C)N(C)C(=O)[C@H](Cc2c[nH]cn2)NC(=O)[C@H](CCCCN)NC(=O)[C@H](C(C)(C)C)NC(=O)[C@H](Cc2ccc(O)cc2)NC1=O (relative stereo) [Compound R4104, ACE-SER-CYS*-TYR-TBG-LYS-HIS-NMA-PHG-7AW-TYR-MFF-SAR-CYS*-NH2]
- IC50: 3.29 nM
